Assay results taken from the NIST ThermoML archive (doi:10.1007/s10765-012-1373-z).

Conditions: Liquid; for mass density: Buoyancy - hydrostatic balance; for viscosity: Falling or rolling sphere viscometry

CCCCCCC [heptane]
Conditions	mass density [kg/m3]	viscosity [mPa·s]
298.15 K, 98 kPa	679.99	0.396
298.15 K, 24510 kPa	702.85	0.4923
298.15 K, 49030 kPa	718.61	0.602
298.15 K, 98060 kPa	741.52	0.8489
298.15 K, 147100 kPa	760.47	1.137
298.15 K, 196130 kPa	780.16	1.493
298.15 K, 245160 kPa	792.15	1.91
303.15 K, 98 kPa	674.98	0.373
303.15 K, 24510 kPa	697.11	0.4737
303.15 K, 49030 kPa	713.79	0.5696
303.15 K, 98060 kPa	739.05	0.8037
303.15 K, 147100 kPa	759.49	1.071
303.15 K, 196130 kPa	777.85	1.389
303.15 K, 245160 kPa	789.56	1.744
323.11 K, 49030 kPa	701.18	0.4816
323.13 K, 24510 kPa	680.94	0.3966
323.2 K, 98060 kPa	731.08	0.6613
323.2 K, 147100 kPa	749.97	0.87
323.21 K, 196130 kPa	768.38	1.112
323.25 K, 98 kPa	659.16	0.3107
323.25 K, 245160 kPa	783.33	1.378
362.8 K, 147100 kPa	731.67	0.6488
362.83 K, 98060 kPa	709.5	0.4956
362.85 K, 49030 kPa	675.9	0.3626
362.87 K, 196130 kPa	752.22	0.8089
362.92 K, 98 kPa	622.63	0.2146
362.98 K, 245160 kPa	769.76	0.9926
363.07 K, 24510 kPa	654.31	0.2937
391.93 K, 147100 kPa	717.73	0.531
392 K, 196130 kPa	739.92	0.6621
392 K, 245160 kPa	759.27	0.8047
392.04 K, 98060 kPa	696.22	0.4119
393.01 K, 24510 kPa	634.69	0.2366
393.14 K, 49030 kPa	657.93	0.2965
422.17 K, 196130 kPa	729	0.5591
422.24 K, 98060 kPa	679.62	0.3479
422.26 K, 147100 kPa	704.75	0.4464
422.58 K, 24510 kPa	611.28	0.1951
422.6 K, 49030 kPa	638.89	0.2476
423.04 K, 245160 kPa	748.46	0.6699
452.91 K, 245160 kPa	734.45	0.577
453.04 K, 196130 kPa	716.18	0.4784
453.1 K, 147100 kPa	689.71	0.3883
453.16 K, 98060 kPa	666.38	0.3007
453.24 K, 49030 kPa	621.56	0.2134
453.4 K, 24510 kPa	589.05	0.1668
470.1 K, 49030 kPa	611.78	0.2021
470.19 K, 24510 kPa	574.55	0.1568
470.19 K, 98060 kPa	658.7	0.2858
470.19 K, 147100 kPa	685.13	0.3672
470.57 K, 196130 kPa	709.79	0.4549
470.61 K, 245160 kPa	729.17	0.5475
